Assay results published in US20060252683A1, “Preparation of a peptide compound (SYRAPRO-2000) and its use for the activation of protein phosphatase-2A1 enzyme” (priority 2005, published 2006).

Assays:
Jurkat cells = experiment: Cell viability (tryphan blue) and cell death of Jurkat cells; assay type: cell-based, human; conditions: 1000 nM
Method: Panel A, Jurkat cells (a CD^4+ T cell line) were grown in RPMI 1640 and 10% (v/v) fetal bovine serum. Cells (10^6 cells per ml) were treated (+) or not (−) with 1000 nM SYRAPRO-2000. Cell viability was then determined by counting the cells following tryphan blue staining after 1, 2 and 4 hours of incubation. Panel B, Following treatment with SYRAPRO-2000 for 1, 2 and 4 hours as indicated, Jurkat cells (10^6/ml) were washed with RPMI plus 2% fetal bovine serum and then deposited onto glass slides by cytospinning. Phase contrast images were then obtained with white light emission on a Zeiss Axioplan 2 imaging universal microscope (Thornwood, N.Y.). […]
Jurkat cells are grown in RPMI 1680 medium supplemented with 5% (v/v) fetal bovine serum and antibiotics and treated or not with 1 μM of SYRAPRO-2000 for 1 hour, 2 hours and 4 hours. Following treatment with SYRAPRO-2000, cell viability are then determined by counting the cells following tryphan blue staining. […]
Following treatment of cells with SYRAPRO-2000, cells were examined by phase contrast microscopy or by fluorescent microscopy following staining with FITC labeled annexin V (apoptotic cell death) and propidium iodide (oncolytic cell death). Cells were analyzed on a Zeiss Axioplan 2 imaging universal microscope (Thornwood, N.Y.). […] Green (FITC labeled annexin V) and red (propidium iodide) fluorescence images were obtained. […]

protein phosphatase-2A1 = protein phosphatase-2A1 (Homo sapiens, UniProt P67775); experiment: Assay of purified protein phosphatase-2A1 in vitro with 32P-labeled phosphorylase a as substrate; assay type: biochemical; design: Protein phosphatase-2A1 purified from CD^4+ T cells as described in materials and method; endogenous in cells; host or cells: Jurkat cells; enzyme purified by DEAE Sepharose, Sephacryl S-300 HR and poly-L-lysine Agarose; conditions: purified enzyme from Jurkat cells, in vitro
Method: Protein phosphatase-2A1 purified from CD^4+ T cells as described in materials and method was assayed in the presence of various concentrations of SYRAPRO-2000. 100 percent protein phosphatase-2A1 activity is equivalent to 0.005 unit. Similar result were obtained in 3 independent experiments.
The effect of synthesized SYRAPRO-2000 on purified protein phosphatase-2A1 can be determined in vitro. Protein phosphatase-2A1 can be assayed using ^32P-labeled phosphorylase a as substrate in the presence of various concentrations of SYRAPRO-2000. Protein phosphatase-2A1 is activated in the presence of SYRAPRO-2000.
Protein phosphatase-1 was assayed as described in (Cohen 1988). Protein phosphatase-2B was assayed as described in (Tung 1986). Protein phosphatase-2C was assayed as described in (Tung 1986) except Ca^2+ and calmodulin were omitted. The assay of protein phosphatases-2A1 consisted of 0.02 ml of enzyme solution in 50 mM Imidazole-Cl pH 7.2, 0.2 mM EGTA, 0.1% (v/v) 2-mercaptoethanol and 1 mg/ml bovine serum albumin (Assay Buffer), 0.01 ml of inhibitor-2 at 600 nM in Assay Buffer, 0.01 ml of protamine at 60 μg/ml in Assay Buffer or 0.01 ml of SYRAPRO-2000 at different concentrations in Assay Buffer or 0.01 ml of Assay Buffer alone, 0.02 ml of ^32P-labeled phosphorylase a at 3 mg/ml in Assay Buffer containing 15 mM caffeine. The assay components were preincubated for 10 minutes prior to initiating the reaction with ^32P-labeled phosphorylase a. One unit of protein phosphatase activity is that amount of enzyme which catalyzes the release of 1 nmol of phosphate from ^32P-labeled substrate per min at 30° C.
Jurkat cells, a human transformed CD^4+ T cell line, were grown in grown in RPMI 1680 supplemented with 5% (v/v) fetal bovine serum at 37° C. in 95% air/5% CO2 in a humidified incubator. 2.4 liters of cells were collected by centrifugation at 4200 rpm in a low speed centrifuge for 10 minutes. The cells were homogenized in 80 ml of 50 mM Imidazole-Cl pH 7.2, 2 mM EGTA, 2 mM EDTA, 0.1% (v/v) 2-mercaptoethanol, 0.2 mM PMSF, 1 mM benzamidine, 4 μg/ml aprotinin, 4 μg/ml leupeptin, 4 μg/ml pepstatin, 0.1 mM TLCK, 0.1 mM TPCK, 1 mM sodium orthovanadate and 10% (v/v) glycerol by 40 strokes in a glass hand held homogenizer. The homogenate was centrifuged at 29000 rpm in a high speed centrifuge for 30 minutes. The supernatant (i.e the extract) was collected and loaded onto a DEAE Sepharose column (1.5×6 cm) equilibrated in 25 mM Imidazole-Cl pH 7.2, 0.2 mM EGTA, 0.1% (v/v) 2-mercaptoethanol, 0.1 mM PMSF, 1 mM benzamidine and 10% (v/v) glycerol (Buffer A). The column was washed with 50 ml of Buffer and then eluted with a 200 ml linear gradient of Buffer A to Buffer A plus 0.4 M NaCl. The eluted fractions were then assayed for phosphorylase phosphatase activity in the presence of 100 nM inhibitor-2 and 10 μg/ml of protamine. Two major peaks of phosphorylase phosphatase were observed. The first and second peak represent protein phosphatase-2A0 and protein phosphatase-2A1 respectively. […] The major activity eluting as a species of apparent molecular mass 300 kDa was collected, diluted four fold in Buffer A and loaded onto a poly-L-lysine Agarose Column (1.5×4 cm) equilibrated in Buffer A. The column was washed with 50 ml of Buffer A and then eluted with a 200 ml linear gradient of Buffer A to Buffer A plus 0.5 M NaCl. The active fractions eluting at ˜0.30 M NaCl salt concentration was pooled, concentrated by vacuum dialysis and stored at ^−20° C. in 50 mM Imidazole-Cl pH 7.2, 0.2 mM EGTA in the presence of 50% (v/v) glycerol. The highly purified enzyme consisted of the characteristic subunits of protein phosphatase-2A1, namely the A, B and C subunits. […] It is difficult to determine the activity of protein phosphatase-2A1 in CD^4+ T cell extract. However, assuming that it represented about 66 percent of total type 2A protein phosphatase activity in CD^4+ T cell extract, the specific activity of the enzyme in extract was estimated to be 0.3 unit/mg. […]

protein phosphatase-2A1, sequence (P67775 whole entry): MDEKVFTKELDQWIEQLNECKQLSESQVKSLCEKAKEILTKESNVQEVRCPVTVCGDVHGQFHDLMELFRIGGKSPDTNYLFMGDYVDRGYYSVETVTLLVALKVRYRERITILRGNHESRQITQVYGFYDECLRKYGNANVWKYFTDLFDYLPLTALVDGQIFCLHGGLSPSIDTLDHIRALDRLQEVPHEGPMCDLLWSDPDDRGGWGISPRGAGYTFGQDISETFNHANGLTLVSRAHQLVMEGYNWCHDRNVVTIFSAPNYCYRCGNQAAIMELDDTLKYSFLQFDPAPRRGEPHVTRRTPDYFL
protein phosphatase-2A1, sequence (P30153 whole entry partner): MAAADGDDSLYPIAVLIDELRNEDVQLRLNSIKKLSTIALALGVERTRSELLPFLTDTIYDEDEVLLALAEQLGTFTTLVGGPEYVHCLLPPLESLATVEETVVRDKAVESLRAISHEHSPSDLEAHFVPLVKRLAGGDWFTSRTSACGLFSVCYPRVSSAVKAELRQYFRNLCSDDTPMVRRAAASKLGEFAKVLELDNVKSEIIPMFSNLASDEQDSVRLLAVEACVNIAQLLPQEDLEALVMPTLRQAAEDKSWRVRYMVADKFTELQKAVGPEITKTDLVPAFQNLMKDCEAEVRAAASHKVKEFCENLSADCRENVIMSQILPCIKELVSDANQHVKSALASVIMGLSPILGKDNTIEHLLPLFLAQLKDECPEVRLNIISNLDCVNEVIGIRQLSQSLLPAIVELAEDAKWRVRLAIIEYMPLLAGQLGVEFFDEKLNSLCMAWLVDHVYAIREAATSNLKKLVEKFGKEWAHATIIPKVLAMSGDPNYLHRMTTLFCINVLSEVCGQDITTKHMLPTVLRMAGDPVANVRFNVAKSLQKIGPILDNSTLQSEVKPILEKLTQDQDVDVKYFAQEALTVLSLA
protein phosphatase-2A1, sequence (P63151 whole entry partner): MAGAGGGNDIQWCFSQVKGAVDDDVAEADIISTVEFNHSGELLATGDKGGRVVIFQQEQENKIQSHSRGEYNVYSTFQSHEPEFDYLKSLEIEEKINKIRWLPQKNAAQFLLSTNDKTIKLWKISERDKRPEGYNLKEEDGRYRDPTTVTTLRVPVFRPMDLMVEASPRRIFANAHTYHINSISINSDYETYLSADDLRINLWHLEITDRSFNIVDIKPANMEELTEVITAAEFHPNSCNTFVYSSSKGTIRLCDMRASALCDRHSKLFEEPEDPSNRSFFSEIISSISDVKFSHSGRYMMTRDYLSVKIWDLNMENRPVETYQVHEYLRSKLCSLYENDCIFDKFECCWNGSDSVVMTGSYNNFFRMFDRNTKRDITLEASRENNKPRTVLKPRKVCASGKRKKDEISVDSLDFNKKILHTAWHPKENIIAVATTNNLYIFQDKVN

## CC[C@H](C)[C@H](NC(=O)[C@H](CCCNC(=N)N)NC(=O)[C@H](CO)NC(=O)[C@H](Cc1c[nH]cn1)NC(=O)[C@H](CCCNC(=N)N)NC(=O)[C@H](CS)NC(=O)CNC(=O)[C@@H](NC(=O)[C@H](CCCNC(=N)N)NC(=O)[C@H](Cc1ccccc1)NC(=O)[C@@H](N)Cc1c[nH]cn1)[C@@H](C)CC)C(=O)NCC(=O)N[C@H](C(=O)N[C@H](C(=O)N[C@@H](CCCNC(=N)N)C(=O)N[C@@H](CCC(N)=O)C(=O)N[C@@H](CCCNC(=N)N)C(=O)N[C@@H](CCCNC(=N)N)C(=O)N[C@@H](C)C(=O)N[C@@H](CCCNC(=N)N)C(=O)N[C@@H](CC(N)=O)C(=O)NCC(=O)N[C@@H](C)C(=O)N[C@@H](CO)C(=O)N[C@@H](CCCNC(=N)N)C(=O)N[C@@H](CO)C(=O)O)[C@@H](C)O)C(C)C [SYRAPRO-2000]
Jurkat cells
  mode of cell death (phase contrast microscopy): oncolysis
Protein phosphatase-2A1
  activation of protein phosphatase-2A1: 7 fold
  concentration above which there was inhibition of protein phosphatase-2A1 (biphasic effect): above 1000 nM
Protein phosphatase-2A1; read-out: half maximal activation of protein phosphatase-2A1
  EC50: ~300 nM
